The values that follow come from patent publication US20060058315A1, “2-Oxo-ethanesulfonamide derivates” (AstraZeneca AB, priority 2002, published 2006).

The target in the assay is T1, human 11βHSD1 (Homo sapiens, UniProt P28845).
T1 construct: a construct containing full-length human 11βHSD1 enzyme (in pCMVHyg); expressed in transfected cells
T1 sequence (P28845 whole entry): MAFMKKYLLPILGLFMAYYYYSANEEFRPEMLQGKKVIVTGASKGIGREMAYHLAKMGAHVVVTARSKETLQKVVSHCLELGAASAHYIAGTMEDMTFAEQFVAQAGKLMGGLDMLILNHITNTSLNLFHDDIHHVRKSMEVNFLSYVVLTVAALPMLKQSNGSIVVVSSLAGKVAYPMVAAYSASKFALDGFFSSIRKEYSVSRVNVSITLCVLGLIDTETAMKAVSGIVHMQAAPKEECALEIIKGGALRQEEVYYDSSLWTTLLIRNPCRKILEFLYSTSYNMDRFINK
Put plainly: HeLa GRE4-βGal/11βHSD1 cell reporter assay (β-galactosidase production). Format: cell-based. The following applies: HeLa GRE4-βGal/11βHSD1 cells, cortisone 1 μM, overnight incubation, absorbance at 570 nm. The text has this: HeLa cells (human cervical carcinoma derived cells) were stably transfected with a construct containing four copies of the glucocorticoid response element (GRE) linked to a beta-galactosidase reporter gene (3 kb lac Z gene derived from pSV-B-galactosidase). These cells were then further stably transfected with a construct containing full-length human 11βHSD1 enzyme (in pCMVHyg) to create GRE4-βGal/11βHSD1 cells. The principal of the assay is as follows. Cortisone is freely taken up by the cells and is converted to cortisol by 11βHSD1 oxo-reductase activity and cortisol (but not cortisone) binds to and activates the glucocorticoid receptor. Activated glucocorticoid receptor then binds to the GRE and initiates transcription and translation of β-galactosidase. Enzyme activity can then be assayed with high sensitivity by colourimetric assay.
Cells were routinely cultured in DMIM (Invitrogen, Paisley, Renfrewshire, UK) containing 10% foetal calf serum (LabTech), 1% glutamine (Invitrogen), 1% penicillin & streptomycin (Invitrogen), 0.5 mg/ml G418 (Invitrogen) & 0.5 mg/ml hygromycin (Boehringer). Assay media was phenol red free-DMEM containing 1% glutamine, 1% penicillin & streptomycin.
Compounds (1 mM) to be tested were dissolved in dimethyl sulphoxide (DMSO) and serially diluted into assay media containing […]. […]
A cocktail (25 μl) consisting of 10× Z-buffer (600 mM Na2HPO4, 400 mM NaH2PO4.2H2O, 100 mM KCl, 10 mM MgSO4.7H2O, 500 mM, β-mercaptoethanol, pH 7.0), SDS (0.2%), chlorophenol red-β-D-galactopyranoside (5 mM, Roche Diagnostics) was added per well and plates incubated at 37° C. for 3-4 hours. β-Galactosidase activity was indicated by a yellow to red colour change (absorbance at 570 nm) measured using a Tecan Spectrafluor Ultra.
The calculation of median inhibitory concentration (IC50) values for the inhibitors was performed using Origin 6.0 (Microcal Software, Northampton M A USA). Dose response curves for each inhibitor were plotted as OD units at each inhibitor concentration with relation to a maximum signal (cortisone, no compound) and IC50 values calculated. […]
Compound `CC(C)Oc1ccc(C(=O)CS(=O)(=O)N(C(C)C)C(C)C)cc1` [Example 75] came in with an IC50 of 60 nM.

Regarding `CN(C)S(=O)(=O)CC(=O)c1ccccn1` [Example 2, (N,N-Dimethylsulphamoylmethyl)(pyrid-2-yl)ketone], half-maximal inhibition (IC50) required 72 nM.

`CN(C)S(=O)(=O)CC(=O)c1cnccn1` [Example 14] gave an IC50 of 47 nM. This IC50 lies about 1.5-fold lower than the previous one.
